Test results: patent US12202868B1, “Stapled and specifically targeted antimicrobial peptide” (KING SAUD UNIVERSITY, priority 2024, dated 2025)
≈ marks a conversion by molar mass, not a printed value. Read-outs that look alike come from different tables or passages of the source. Positions of bridges follow the written chain, without caps; N, C: chain ends. Non-standard residues stand in square brackets, D forms with d. Residues, ends and D or L forms follow the SMILES beside them. S5 = C=CCCC[C@](C)(N)C(=O)O

Experiments:
[1] = test system: S. mutans
[2] = test system: Kleibsella pneumonia; assay: organism not typed; assay type: cell-based; conditions: 30 μl in 6 mm well, ssTAMP 100 μg/ml, Kanamycin 10 μg/ml, 24 hours, mean±SD, n=3
Method: (§1) Microbial cultures were procured from the microbiology department, College of Pharmacy, King Saud University, Riyadh. Strains were grown aerobically at 37° C. with shaking in Muller Hilton media.
(§2) The agar diffusion method was used to examine the synthesized ssTAMP's antibacterial activity. Pure colonies of Bacillus subtilis, Streptococcus pneumonia, Staphalycoccus aureus, Streptococcus mutans, Escherichia coli, and Kleibsella pneumonia were used for antibacterial susceptibility testing according to Clinical Laboratory Standards Institute (CLSI) 2021 guidelines by using a modified Kirby-Bauer disk diffusion technique. In brief, homogeneous colonies were chosen from each microbial strain and grown on Mullar Hilton broth at log phase. 0.5 McFarland standard culture was used to spread on to the Mullar Hilton agar plates. Freshly prepared 30 μl each of Kanamycin 10 μg/ml and ssTAMP 100 μg/ml was poured into 6 mm diameter well, blank well with equivalent amount of saline served as a […]. The plates were incubated for 24 hours, and the diameter of the inhibition zone was measured to determine if the findings were susceptible or resistant. The full analysis was carried out three times.
(§3) The agar diffusion method was used to test antimicrobial susceptibility of sSTAMP against B. Subtilis, S. Pneumoniae, S. Aureus, S. Mutans, E. Coli, and Kleibsella pneumonia strains (FIG. 1).

[3] = test system: S. pneumonia; assay: microbe, parasite or virus in culture; conditions: Streptococcus pneumoniae, read-out: Minimum Inhibitory concentration
[4] = test system: E. coli
[5] = test system: S. aureus; assay: microbe, parasite or virus in culture; conditions: Staphylococcus aureus, read-out: Minimum Inhibitory concentration
[6] = test system: Kleibsella pneumonia; assay: organism not typed; conditions: read-out: Minimum Inhibitory concentration
[7] = test system: S. pneumonia
[8] = test system: B. subtilis
[9] = test system: Streptococcus mutans; assay: microbe, parasite or virus in culture; assay type: cell-based; conditions: S. mutans, 30 μl in 6 mm well, ssTAMP 100 μg/ml, Kanamycin 10 μg/ml, 24 hours, mean±SD, n=3
Method: as §1, §2, §3

[10] = test system: Staphylococcus aureus; assay: microbe, parasite or virus in culture; assay type: cell-based; conditions: S. aureus, 30 μl in 6 mm well, ssTAMP 100 μg/ml, Kanamycin 10 μg/ml, 24 hours, mean±SD, n=3
Method: as §1, §2, §3

[11] = test system: Escherichia coli; assay: microbe, parasite or virus in culture; assay type: cell-based; conditions: E. coli, 30 μl in 6 mm well, ssTAMP 100 μg/ml, Kanamycin 10 μg/ml, 24 hours, mean±SD, n=3
Method: as §1, §2, §3

[12] = test system: Bacillus subtilis; assay: microbe, parasite or virus in culture; assay type: cell-based; conditions: B. subtilis, 30 μl in 6 mm well, ssTAMP 100 μg/ml, Kanamycin 10 μg/ml, 24 hours, mean±SD, n=3
Method: as §1, §2, §3

[13] = test system: Streptococcus pneumonia; assay: microbe, parasite or virus in culture; assay type: cell-based; conditions: S. pneumonia, 30 μl in 6 mm well, ssTAMP 100 μg/ml, Kanamycin 10 μg/ml, 24 hours, mean±SD, n=3
Method: as §1, §2, §3

[14] = test system: E. coli; assay: microbe, parasite or virus in culture; conditions: Escherichia coli, read-out: Minimum Inhibitory concentration
[15] = test system: Kleibsella pneumonia
[16] = test system: B. subtilis; assay: microbe, parasite or virus in culture; conditions: Bacillus subtilis, read-out: Minimum Inhibitory concentration
[17] = test system: S. mutans; assay: microbe, parasite or virus in culture; conditions: Streptococcus mutans, read-out: Minimum Inhibitory concentration
[18] = test system: S. aureus
[19] = test system: A549 lung cancer cells; assay type: cell-based; conditions: human, 24 h
Method: (§4) MCF-7 and A549 cells were cultured under aseptic conditions at 37° C. and 5% CO2 using Dulbecco's Modified Eagle's Medium (DMEM), accompanied with 1% mixture of “Penicillin-Streptomycin”, and 10% Fetal Bovine Serum (FBS). The cells were processed and grown in a sterile environment and all the procedures were done in a biosafety cabinet. The cells were harvested using 0.25% trypsin containing EDTA and phenol red, once they reached around 80% confluency. To test the in-vitro toxicity of the antimicrobial peptide, the harvested cells were seeded in 96 well plates for conducting a cell viability assay using MTT (3-(4,5-dimethylthiazol-2-yl)-2,5-diphenyl tetrazolium bromide).
(§5) In order to investigate the in-vitro cytotoxicity of ssTAMP using the MTT assay, cell viability was carried out in MCF-7 and A549 cells. To achieve a cell density of 5×10^5 cells/mL, trypsin was introduced to the cells during their exponential phase of growth. After that, 100 μL of media and the cell suspension (15000 cells/well) were placed on a flat-bottomed microplate, where they were left to attach to the bottom overnight. The following day, 10 μL of freshly prepared medium containing ssTAMP concentrations ranging from 7.81 to 1000 µg/mL was added to the preexisting medium. As a negative control, a triplicate of untreated, FBS-free DMEM were used. Each product's dilution was tested three times. After 24 hours, the media was carefully removed from the wells. After that, 10 μL of MTT solution (5 mg/mL in PBS) and 90 μL of the medium were added. After that, this combination was incubated for 4 hours at room temperature. The medium and MTT in the culture fluid were then drawn out, leaving the formazan crystal precipitate. Formazan was dissolved for 15 minutes at room temperature in a […]. At 570 nm, the absorbance was measured (Synergy HT, BioTek Inst., VT, USA). Cell viability was calculated as a percentage of the absorbance when compared with negative control considered as 100%. The cytotoxic effects of ssTAMP on MCF-7 and A549 cells were expressed as IC50 values.
(§6) The percentage cell viabilities of MCF-7 breast cancer cells and A549 lung cancer cells against varying concentrations of ssTAMP are presented in FIGS. 3A-3B. […] The cytotoxicity starts to appear at the lowest concentration of ssTAMP used (7.81 μg/mL in MCF-7, and 15.62 μg/mL in A549). The effect pattern of the ssTAMP in both the cell lines is similar up to the concentration of 250 μg/mL. However MCF-7 appear to be more sensitive at higher concentrations of ssTAMP above 250 μg/mL.

[20] = test system: MCF-7 breast cancer cells; assay type: cell-based; conditions: human, 24 h
Method: as §4, §5, §6

[21] = S. mutans, microdilution, overnight 37° C., mean±SD, n=3
[22] = E. coli, microdilution, overnight 37° C., mean±SD, n=3
[23] = S. pneumonia, microdilution, overnight 37° C., mean±SD, n=3
[24] = B. subtilis, microdilution, overnight 37° C., mean±SD, n=3
[25] = Kleibsella pneumonia, microdilution, overnight 37° C., mean±SD, n=3

Compound: NC[C@H]1O[C@H](O[C@H]2[C@H](O)[C@@H](O[C@H]3O[C@H](CO)[C@@H](O)[C@H](N)[C@H]3O)[C@H](N)C[C@@H]2N)[C@H](O)[C@@H](O)[C@@H]1O [Kanamycin]
- Minimum Inhibitory concentration [1, 21]: 1.04 ± 0.21 µg/mL
- Zone of inhibition [2]: 15.10 ± 0.74 mm
- zone of inhibition at 10 µg/mL [2]: 15.1 ± 0.74 mm
- MIC [3]: 1.67 ± 0.42 µg/mL (≈ 3.45 µM)
- Minimum Inhibitory concentration [4, 22]: 1.46 ± 0.55 µg/mL
- MIC [5]: 1.67 ± 0.42 µg/mL (≈ 3.45 µM)
- MIC [6]: 1.25 µg/mL (≈ 2.58 µM)
- Minimum Inhibitory concentration [7, 23]: 1.67 ± 0.42 µg/mL
- Minimum Inhibitory concentration [8, 24]: 1.67 ± 0.42 µg/mL
- Zone of inhibition [9]: 18.37 ± 0.58 mm
- zone of inhibition at 10 µg/mL ([9]; Streptococcus mutans): 18.4 ± 0.58 mm
- Zone of inhibition [10]: 16.07 ± 0.45 mm
- zone of inhibition at 10 µg/mL ([10]; Staphylococcus aureus): 16.1 ± 0.45 mm
- Zone of inhibition [11]: 14.90 ± 0.25 mm
- zone of inhibition at 10 µg/mL ([11]; Escherichia coli): 14.9 ± 0.25 mm
- Zone of inhibition [12]: 16.40 ± 0.46 mm
- zone of inhibition at 10 µg/mL ([12]; Bacillus subtilis): 16.4 ± 0.46 mm
- Zone of inhibition [13]: 15.70 ± 0.4 mm
- zone of inhibition at 10 µg/mL ([13]; Streptococcus pneumoniae): 15.7 ± 0.4 mm
- MIC [14]: 1.46 ± 0.55 µg/mL (≈ 3.01 µM)
- Minimum Inhibitory concentration [15, 25]: 1.25 ± 0.00 µg/mL
- MIC [16]: 1.67 ± 0.42 µg/mL (≈ 3.45 µM)
- MIC [17]: 1.04 ± 0.21 µg/mL (≈ 2.15 µM)

Compound: CC[C@H](C)[C@H](NC(=O)[C@H](CCCNC(=N)N)NC(=O)[C@H](CCCCN)NC(=O)[C@]1(C)CCCC=CCCC[C@](C)(NC(=O)[C@H](CCCCN)NC(=O)[C@H](CCC(=O)O)NC(=O)[C@H](CCCCN)NC(=O)[C@H](CO)NC(=O)[C@H](CCCCN)NC(=O)[C@H](CCCNC(=N)N)NC(=O)[C@H](Cc2ccccc2)NC(=O)[C@H](Cc2ccccc2)NC(=O)CNC(=O)CNC(=O)[C@H](CC(N)=O)NC(=O)[C@H](CCCNC(=N)N)NC(=O)[C@H](Cc2ccccc2)NC(=O)[C@@H](NC(=O)[C@H](C)NC(=O)[C@@H](NC(=O)[C@H](CC(=O)O)NC(=O)[C@H](CCCCN)NC(=O)[C@H](CCC(=O)O)NC(=O)CNC(=O)[C@@H](NC(=O)[C@H](CO)NC(=O)[C@@H]2CCCN2C(=O)[C@@H](N)CC(C)C)[C@@H](C)O)[C@@H](C)O)C(C)C)C(=O)NCC(=O)N[C@@H](CCCCN)C(=O)N[C@@H](CCC(=O)O)C(=O)N1)C(=O)N[C@H](C(N)=O)C(C)C [ssTAMP] (H-LPSTGEKDTAVFRNGGFFRKSKEK[S5]GKE[S5]KRIV-NH2; staple 25-29; N-terminus assumed)
- Minimum Inhibitory concentration [1]: 8.33 ± 2.08 µg/mL
- Minimum Inhibitory concentration [1, 21]: 8.33 ± 2.08 µg/mL
- Zone of inhibition [2]: 23.47±1.40 mm
- Minimum Inhibitory concentration [18]: 12.50 ± 0.000 µg/mL
- Minimum Inhibitory concentration ([18]; S. aureus, microdilution, overnight 37° C., mean±SD, n=3): 12.50 ± 0.000 µg/mL
- Minimum Inhibitory concentration [4]: 5.21 ± 1.05 µg/mL
- Minimum Inhibitory concentration [4, 22]: 5.21 ± 1.05 µg/mL
- Minimum Inhibitory concentration [7]: 10.42 ± 2.08 µg/mL
- Minimum Inhibitory concentration [7, 23]: 10.42 ± 2.08 µg/mL
- Minimum Inhibitory concentration [8]: 8.33 ± 2.08 µg/mL
- Minimum Inhibitory concentration [8, 24]: 8.33 ± 2.08 µg/mL
- Zone of inhibition [9]: 22.23±1.39 mm
- Zone of inhibition [10]: 9.60±0.32 mm
- Zone of inhibition [11]: 24.30±1.08 mm
- Zone of inhibition [12]: 20.63±0.85 mm
- Zone of inhibition [13]: 20.17±0.72 mm
- IC50, cytotoxicity by MTT assay [19]: 265.0 µg/mL
- cells viable ([19]; 250 μg/ml): more than 50%
- IC50, cytotoxicity by MTT assay [20]: 558.2 µg/mL
- cells viable ([20]; 250 μg/ml): more than 50%
- Minimum Inhibitory concentration [15]: 5.21 ± 1.042 µg/mL
- Minimum Inhibitory concentration [15, 25]: 5.21 ± 1.042 µg/mL
